Data set [1] deals with Madin-Darby Canine Kidney (MDCK) cells. Put plainly: In vitro BBB tight junction model (Transwell, TEER, fluorescent antibody). The data set is classed as cell-based. On the procedure: The labelled components are Transwell chemotaxis chamber; upper chamber; porous membrane and lower chamber. Transwell culture chambers (pore size: 0.8 μm). Madin-Darby Canine Kidney (MDCK) cells are epithelial cells. TEER: transepithelial/transendothelial electrical resistance. Fluorescence Ab: Alexa Fluo®488; donkey anti-rat IgG (H+L). Fluorescence was measured in the lower chamber in about 120 minutes.

Data set [2] relates to recurrent malignant gliomas. The conditions noted are these: intranasal delivery, cited from earlier work.
For data set [3], the system named is BBB in an in vitro BBB model. Put plainly: In vitro BBB model, remdesivir transport across Transwell. The data set is classed as cell-based. The conditions noted are these: POH 1.5 mM; POH-Remdesivir vs H2O-Remdesivir in upper chamber; 4 hours. Here is the method:
For the in vitro, cells were plated in the upper chamber of a Transwell. The POH-Remdesivir or H2O-Remdesivir mixture was placed in the upper chamber. POH was at a concentration of 1.5 mM. The media from both upper and lower chambers were collected after 4 hours and quantitated for remdesivir.

The subject of data set [4] is GL261 mouse glioma. Put plainly: Anti-mouse PD-1 antibody therapeutic efficacy (survival) in intracranial syngeneic glioma. Conditions: IC 40 μl 5% NEO100 and/or IV anti-PD1 2.5 mg/kg; treatment from day 7. Type of data set: in vivo, C57 BL/6 mice. Here is the method:
100,000 GL261 mouse glioma cells were injected intracranially to immune competent mice, C57 BL/6. 7 days post the injection, the mice were randomly divided into 4 experimental groups, and initiated the treatment at the same day. • Group 1. Control: IV and Intracardiac injection of 40 μl Saline Solution (5). • Group 2. Antibody treated mice: IV 40 μl Anti-mouse PD1 antibody at the dose of 2.5 mg/kg (5). • Group 3. NEO100 treated mice: Intracardiac injection of 40 μl 5% NEO100(5). • Group 4. Combination of NEO100 and antibody treated mice: Intracardiac 40 μl 5% NEO100, followed by IV 40 μl Anti-PD1 antibody at the dose of 2.5 mg/kg (6).
Animal survival data were plotted using the Kaplan-Meier method. One-way ANOVA was used for the overall test for differences. Grouped comparisons were performed using the Tukey method of adjusting for multiple comparisons. Logrank (Mantel-Cox) test was applied for the comparison of survival curves. A statistical evaluation result of p<0.05 was considered significant. • Control vs IC NEO100+IV Anti-mouse PD-1: *** P<0.0003 • Control vs IV Anti-mouse PD-1: ns, p=0.31 • IV Anti-mouse PD-1 vs IC NEO100+IV Anti-mouse: ** P<0.005 • Control vs IC NEO100: ns, p=0.397

In data set [5] the test system is GL261 mouse glioma. Put plainly: NEO100-mediated human CAR T cell delivery to brain and tumor (CD3 IHC). The data set is classed as in vivo. Here is the method: 2-million CD19 and Lym-1 human CAR T cells that were suspended in 0.9% saline working solution to be used for the IV injection with and without intracardiac NEO100.
Preparation of the working solution for intracardiac injection of NEO100: 3% NEO100 suspended in 0.9% saline.
40 μl 3% NEO100 in saline was injected slowly to complete intracardiac application. Direct cell injection into the heart could cause local microinfaractions if the cells are clumpy during injection, hemopericardium and death as a consequence. This is why ultrasound guided injections with a small 30 G needle is important to minimize these potential adverse effects, (1) enabling the visualization of the needle tract to ensure that the needle enters the left ventricle only, and (2) subsequent monitoring of the heart through not only ECG but visualization of heart wall function after the injection. The fine gauge of the needle ensures that the cells are not clumpy when the cells are injected through intracardiac puncture.
Immediate after the completion of NEO100 injection, 2 million human CAR T cells in 40 μl PBS were injected through tail vein catheter that pre-primed with saline solution. To avoid the possible adverse effects mentioned above by direct cell injection through intracardiac application, we set up 2-step procedures for the study.
Step 1: 40 μl 3% NEO100 in saline was injected slowly to complete intracardiac application. This procedure allows NEO100 to exert the function of BBB disruption.
Step 2:2-million CAR T cells were injected by IV through tail vein catheter.
Brain Perfusion—In order to rule out the residue left over inside the blood vessel after euthanizing, the testing animals were perfused by 10 ml 0.9% normal saline solution through left ventricle to flush out the blood.
Confocal Imaging—8 UM fresh frozen sections were made by cryostasis machine and pasted on microslide. Coverslip was mounted on the brain section by DAPI mounting medium before Confocal examination. […]

The values that follow come from US20250186472A1, “COMBINATION OF POH AND REMDESIVIR FOR TREATMENT OF CNS INFECTIONS” (NeOnc Technologies, Inc., priority 2020, published 2025).

SMILES strings stand for the structures. “Also recorded” adds a separate entry of the source. Bounds are passed on as bounds.

Method for blood-brain-barrier: Brain Perfusion-Before euthanizing, the testing animals was perfused by 0.9% normal saline solution through left ventricle. The brain was removed and buried in OCT, and stored in −80° C. for further analysis.
Ultrasound Guided Intracardiac Puncture-Briefly, the animals were anesthetized using 2% isoflurane gas and fixed on the platform for intracardiac puncture. To penetrate the syringe needle into intercoastal space promptly through skin and muscle layers into the left ventricle under the guidance of ultrasound imaging. An indication of successful insertion of the needle into the left ventricle is the reflux of fresh arterial blood (pink color in contrast to dark red venous blood) into the syringe.
The extravasation of stained albumin from circulation could be visualized.
NEO100 was delivered via intra-cardiac injection (left ventricle) to determine if there is increased uptake of Evans Blue, a BBB nonpermeable small molecule (dopamine), or antibodies into the brain. […] Different concentration of NE0100 (40 μl in 0.9% saline) was tested through intracardiac puncture, followed by immediate intravenous application of 2% Evans Blue (40 μl in volume). The brain was removed after perfusion.
Experimental groups include: • IC 2% EB only • IC 20% ethanol+2% EB • IC 20% ethanol+2% EB+5% NEO100 • IC 20% ethanol+5% NEO100, followed by 2% EB tail vein injection • IV 20% ethanol+2% EB+5% NEO100 • IV 20% ethanol+2% EB
The immune competent C57 BL/6 mice was injected with 5% NEO100 (v/v) through intracardiac puncture (IC), followed by intravenous injection of 2% Evans Blue at different time points, such as 0, 5 min, 15 min, 30 min, 1-hour, 2-hour, 3-hour, and 4 hours, post the IC injection.
The experimental procedure included: • 1. Intracardiac Injection (IC): 5% NEO100. • 2. Followed by intravenous injection (IV) of 2% EB at different times. • 3. The testing animals were euthanized one hour after the IV injection.

As for `C=C(C)[C@@H]1CC=C(CO)CC1` [NEO100, perillyl alcohol], the “penetration of fluorescence labelled antibody across in vitro BBB model” value in data set [1] (Alexa Fluor 488 donkey anti-rat IgG, lower chamber at about 120 minutes) was “transiently allow labeled antibodies to transiently cross it; also recorded: enhanced penetration”. In data set [1] (NEO100 2 mM), the TEER entry is given as “decreased”. The “disturbance of the BBB (Evans Blue uptake into brain)” value with blood-brain-barrier (1:1000 dilution (6.5 mM 40 μl) IC, then IV 2% Evans Blue) is “still effective to disturb the BBB”. In addition, the “dopamine delivery to brain” value with blood-brain-barrier (intracardiac NEO100) was “mediated dopamine delivery through the breached blood-brain-barrier”. Also, in the data set with blood-brain-barrier (intracardiac injection (equivalent to intra-arterial injection for mice)), the “opening of the BBB for antibodies” value is on record as “could open the BBB for antibodies”. Besides, in the data set on blood-brain-barrier (intracardiac injection of 5% NEO100 compared to normal brain), the “tight junction in the brain” value is listed as “breached dramatically”. For the same compound, in the data set on blood-brain-barrier (mouse, in vivo), the “safety of intraarterial administration” value is given as “safe”. Further, the “treated patients achieving 6 month progression-free period” value in data set [2] (140 treated patients) was 50%. In addition, in data set [2], the “disease remission, several patients” value is reported as at most 3 years; the disease response result is recorded as “regression or stabilization of the disease”; the “side effects from the treatment” value was “almost non-existent”. The “delivery of remdesivir across the BBB” value in data set [3] was “very efficient”. Further, the animal survival entry with GL261 mouse glioma [4] was “dead”. Also, in the data set with GL261 mouse glioma [5] (3% NEO100 intracardiac injection, 40 μl), the “severe adverse effect or animal death” value was “does not cause any severe adverse effect or animal death”. Moreover, in the data set on GL261 mouse glioma [5] (IC 3% NEO100 then IV 2 million anti-CD19 or Lym-1 CAR T cells, compared to IV only, 6 h), the “penetration of human CAR T cells into the tumor formed inside the brain” value is given as “greatly increase the penetration”. Also, in the data set with GL261 mouse glioma [5] (IC NEO100 vs IV injection only samples), the “CD3 positive cells in the normal parts of brain” value was “More CD3 positive cells”.
